Reference: patent US20190054186A1, “Magnetic Nanoparticle-Polymer Complexes and uses Thereof” (The University of North Carolina at Chapel Hill, priority 2016, published 2019)

Key:
[1] = system: actin cytoskeleton of MDA-MB-231, BT474 and MCF10A cells; test: Actin cytoskeleton confocal imaging after pulsed AC magnetic field; type: cell-based, human; details: cancerous cells, CD alone (100 nM)
Experimental: For confocal studies, MDA-MB-231, BT474 and MCF10A cells were plated on Lab-Tek II Chamber slides at a concentration of 1×10^5 cells/well and allowed to grow overnight. The cells were then treated with 0.1 mg/mL Alexa Fluor® 647-PAA-P85-MNP for 24 h followed by thorough washing with acid saline and replacement with complete media. The cells were incubated with 100 nM CD for 1 h to enact cytoskeletal damage in a nonlethal capacity. After washing, the cells were exposed to the pulsed AC magnetic field (50 Hz, 50 kA/m) (10 min on, 5 min off, total exposure 30 min). Appropriate controls included cells not exposed to the magnetic field and untreated cells. Cells were then incubated at 37° C. for 24 h, fixed using 4% paraformaldehyde and permeabilized using 0.5% Triton-X 100. Fixed cells were stained with ActinGreen 488 (Life Technologies, Carlsbad, Calif.), a phalloidin-based actin stain and Hoechst 33342. Images were acquired using a Zeiss CLSM 710 Spectral Confocal Laser Scanning Microscope with the 63×/1.4 Oil Plan Apo lens.

[2] = system: lysosomes of MDA-MB-231, BT474 and MCF10A cells; test: Lysosomal membrane permeabilization, acridine orange assay; type: cell-based, human; details: positive control, 150 μM, three hours, no field
Experimental: MDA-MB-231, BT474 and MCF10A cells were seeded at 1×10^5 cells/well in 8-well Lab-Tek II Chamber slides. Cells were allowed to adhere for several days and were treated with PAA-P85-MNPs at a concentration of 0.1 mg/mL. After 24 h, the cells were washed and then exposed to an AC magnetic field (50 Hz, 50 kA/m) using the pulsed exposure regime for a total of 30 min. Three hours post exposure, cells were treated for 15 min with 10 μg/mL acridine orange stain. The cells were washed 3× with PBS and kept in complete media for imaging. Positive control cells were treated with 150 μM hydrogen peroxide for 3 h followed by thorough washing and staining with acridine orange. Live cell images were acquired using a Zeiss CLSM 710 Spectral Confocal Laser Scanning Microscope with the 63×/1.4 Oil Plan Apo lens.

| SMILES | actin cytoskeleton structure [1] | lysosomal membrane permeabilization (acridine orange) [2] |
| --- | --- | --- |
| C=C1[C@@H](C)[C@H]2[C@H](Cc3ccccc3)NC(=O)[C@]23[C@H](OC(C)=O)/C=C/[C@@](C)(O)C(=O)[C@@H](C)C/C=C/[C@H]3[C@@H]1O [CD, Cytochalasin D] | No significant differences in the cytoskeleton structure |  |
| OO [hydrogen peroxide] |  | loss of punctuate red fluorescence |
